The text below walks through data of article PMC11477965, “Synthesis and Anti-Liver Fibrosis Research of Aspartic Acid Derivatives” (Molecules, 2024).

Where two headings read alike, the source gives them in different places. Where a SMILES comes first, the peptide text is derived from it.

Broadly, the IC50 is the concentration that inhibits the measured activity by half. The term melting point denotes the temperature, or range, at which the solid turns liquid.

Series [1] can be described thus: SRB cytotoxicity assay in LX-2 cells. The format is cell-based, human. Conditions: human, LX-2 cells, SRB assay. The protocol:
(§1) Their cytotoxicity in LX-2 cells was assessed across various concentrations using the SRB assay, and the cytotoxic concentrations (CC50) were determined. The selectivity index (SI), calculated as the ratio of CC50 to the […] (IC50), was employed to evaluate the compounds’ effects on the COL1A1 promoter (Table 2).
(§2) The LX-2 cells were seeded in a 96-well plate when reaching 90% confluent. After 24 h, the compound to be tested was prepared using a complete medium and added to the 96-well plate for 24 h. After washing with PBS, the cells were fixed with 10% (wt/vol) trichloroacetic acid for 1 h, washed with deionized water and dried completely and, after staining with SRB for 20 min, the excess dye was washed with 1% acetic acid (vol/vol) three times. The dye bound to the protein was dissolved with 10 mM Tris base solution and OD values were determined at […].
On the technique in general: The SRB assay estimates cell density from bound dye.

The subject of series [2] is LX-2 cells. As to the kind of experiment: SRB cytotoxicity assay in LX-2 cells. The note with it: CC50 in LX-2 cells / IC50 on COL1A1 promoter. The format is cell-based, human. The protocol: as §1, §2
Another series concerns COL1A1 promoter. Kind of series: COL1A1 promoter luciferase reporter inhibition assay in LX-2 cells.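 As to all read-outs here: Anti-fibrotic screen: luciferase reporter driven by the COL1A1 promoter in human hepatic stellate LX-2 cells, compounds applied in complete medium in 96-well plates.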 The note with it: for inhibition at 500 µM / IC50: Homo sapiens; for inhibition at 500 µM: read-out: Inhibitory Rate (%) of COL1A1 promotor; for relative fluorescence unit (RFU) of COL1A1 promotor: mean ± SD, n = 3, Control 124874.7 ± 10750.9. The series is classed as cell-based, human.

For series [3], the system named is fibro-genic gene expression (fibronectin, COL1A1, TGFβ, α-SMA, CTGF, and TIMP1). As to the kind of experiment: Western blot of fibro-genic proteins in TGFβ1-activated LX-2 cells. Conditions: TGFβ1 2 ng/mL, compound 100 μmol/L, 24 h. The series is classed as cell-based, human. The method, then: To evaluate the anti-fibrotic efficacy in vitro, we assessed the downregulatory effects of ten active compounds (3, 4c, 4d, 8a, 9, 28a, 32a, 41, 43 and 45) and L-Asp on fibro-genic gene expression (fibronectin, COL1A1, TGFβ, α-SMA, CTGF, and TIMP1) using western blot analysis. LX-2 cells were activated with TGFβ1 (2 ng/mL) and concurrently treated with each compound (100 μmol/L) for 24 h.
(§3) After the confluence of LX-2 cells reached 90%, the cells were treated with serum-free medium for 24 h. 2 ng/mL TGFβ1 or 1 μg/mL LPS were used in combination with compounds of different concentrations for 24 h. The samples of cells were lysed in RIPA buffer supplemented with protease inhibitor cocktail (Roche) and separated by SDS-PAGE. After the proteins were transferred to the PVDF membrane, 5% skim milk in TBS-T buffer was used to block them at room temperature for 2 h. Specific primary and secondary antibodies were used to detect the target protein. Finally, the blot was visualized using the Tanon 5200 system (Tanon, Shanghai, China) and the protein expression of GAPDH was used as the internal reference.
In general terms: Immunoblotting shows a protein as a band on a membrane.

Series [4] has as its system LX-2 cells. Kind of series: LPS-induced activation of LX-2 cells, fibro-genic proteins (western blot). The format is cell-based, human. Conditions: LPS 1 μg/mL, 50, 100, 200, and 500 μmol/L, 24 h. The method, then:
Taking the results of Figure 3 and Figure 4 together, it seems that compounds 41 and 8a alleviate inflammation and inhibit liver fibrosis through the IKKβ-NF-κB signaling pathway, as indicated in Figure 5.
as §3

Series [5] concerns IKKβ-NF-κB signaling pathway. As to the kind of experiment: LPS-induced inflammation in LX-2 cells (western blot). The series is classed as cell-based, human. Conditions: 24 h; for inhibition of inflammatory factors: 500 μM bands scanned. The protocol:
Inflammation is crucial in the onset and progression of liver fibrosis, and fibrosis can further exacerbate tissue inflammation. […] To assess the anti-inflammatory effects of Compounds 41 and 8a, LX-2 cells were pre-incubated in serum-free medium for 24 h before LPS stimulation, followed by treatment with different concentrations of the compounds in serum-free medium containing 1 μg/mL LPS for another 24 h. Changes in inflammatory cytokine protein levels were analyzed using western blotting.
The IKKβ-NF-κB signaling pathway has been closely linked to the severity of liver fibrosis, with IKKβ serving as the primary catalytic subunit responsible for NF-κB activation. Therefore, this study investigated the NF-κB pathway by measuring IKKβ kinase activity. […] To evaluate the effects of the target compounds on LPS-induced inflammatory cytokines, four concentrations (50, 100, 200 and 500 μmol/L) were tested, and the results were analyzed by grayscale scanning of western blot bands using ImageJ software (version 1.53t), with normalization to GAPDH protein levels.
as §3

[6] abbreviates: 24 h, read-out: CC50, cytotoxic concentration required to inhibit the growth of LX-2 cells by 50%.
The mark [7] stands for this setting: LX-2, LX-2 cells, read-out: IC50 to inhibit the activity of COL1A1 promoter by 50%.

Method for COL1A1 promoter: A total of 32 target compounds, the lead compound L-Asp, and the positive control epigallocatechin gallate (EGCG), known for its anti-hepatic fibrotic activity [29], were tested for inhibitory effects on COL1A1 promoter activity at a concentration of 0.5 mM.
The LX-2 cells at 90% confluent were transfected with the plasmid of pGL4.17-COL1A1 promoter using Lipofectamine 2000 (Invitrogen, 11668019, Carlsbad, CA, USA) with Opti-MEM serum-free medium (Gibco, 1930104). After culturing for 6 h, the cells were replaced with a complete medium and seeded in 96-well plates for 24 h. The compound to be tested was prepared using a complete medium and added to the 96-well plate. After 24 h, Bright-Glo Luciferase Assay System (Promega, Madison, WI, USA) was used to detect the activity of COL1A1 promoter and the assaying inhibition rate.

`C[C@H](N)C(=O)N[C@@H](CC(=O)O)C(=O)O` [Compound 8a, L-alanyl-L-aspartic acid] (H-Ala-Asp-OH): the CC50 at 24 h in series [1] (setting [6]) came to 13900 µM. Also, in series [1] (read-out: CC50 in LX-2 cells), the CC50 at 24 h is 13000 µM. In addition, the “SI, selectivity index (CC50/IC50)” value in the series on LX-2 cells [2] worked out at 13.16. Further, the inhibition at 500 µM in the series with COL1A1 promoter (LX-2, 24 h) came out at 49.3 ± 13.3%. In addition, the IC50 in the series with COL1A1 promoter (LX-2, read-out: IC50 to inhibit the activity of COL1A1 promoter by 50%) was 1050 ± 111 µM. Also, the “relative fluorescence unit (RFU) of COL1A1 promotor” value (from here on “relative fluorescence unit (RFU)”) with COL1A1 promoter (LX-2 cells) came to 63265.3 ± 16582.4 RFU. In series [3], the “expression of fibro-genic genes (western blot)” value is on record as “no significant inhibitory effect”. Further, the “protein expression of COL1A1, fibronectin, α-SMA, and CTGF” value in the series on LX-2 cells [4] is “significantly reducing”. Moreover, the “LPS-induced phosphorylation and baseline expression of IKKβ, NF-κB phosphorylation and expression” value in series [5] (LPS 1 μg/mL, 50, 100, 200, and 500 μmol/L) was “dose-dependent reduction”. For the same compound, in series [5] (LPS 1 μg/mL), the IL-6 expression result was “significantly suppressed” and the “inhibition of inflammatory factors” value is on record as “superior inhibitory effects”.
In turn, `CC[C@@H]1C2C[C@H](O)CC[C@]2(C)C2CC[C@@]3(C)C(CCC3[C@H](C)CCC(=O)N[C@@H](CC(=O)O)C(=O)O)C2[C@@H]1O` (stereo partly drawn) [Compound 9, ((4R)-4-((3R,6R,7R,10S,13R)-6-ethyl-3,7-dihydroxy-10,13-dimethylhexadecahydro-1H-cyclopenta[a]phenanthren-17-yl)pentanoyl)-L-aspartic acid] returned a melting point of 108.2 to 110.6 °C. Besides, the CC50 at 24 h in series [1] (setting [6]) is 351 ± 19.4 µM. Moreover, in the series on LX-2 cells [2], the “SI, selectivity index (CC50/IC50)” value is 1.30. Besides, in the series on COL1A1 promoter (setting [7]), the half-maximal inhibitory concentration (IC50) came out at 270 ± 47.9 µM. Also, the inhibition at 500 µM in the series with COL1A1 promoter (LX-2 cells, 0.5 mM, 24 h) came to 97.4 ± 3.53%. Further, the “relative fluorescence unit (RFU)” value with COL1A1 promoter (LX-2 cells) worked out at 3188.3 ±4407.2 RFU.
For `COc1ccc(-c2cnc3c(O[C@@H]4CN[C@@H](C(=O)O)C4)cc(C)nn23)cc1OC` [Compound 45, (2R,4S)-4-((3-(3,4-dimethoxyphenyl)-6-methylimidazo [1,2-b]pyridazin-8-yl)oxy)pyrrolidine-2-carboxylic acid], the CC50 at 24 h in series [1] (setting [6]) came out at 632 ± 11.2 µM. Further, in the series with LX-2 cells [2], the “SI, selectivity index (CC50/IC50)” value worked out at 2.12. Also, the IC50 with COL1A1 promoter (setting [7]) came out at 298 ± 51.7 µM. In the series with COL1A1 promoter (LX-2 cells, 0.5 mM, 24 h), the inhibition at 500 µM is 69.6 ± 8.48%. Moreover, in the series with COL1A1 promoter (LX-2 cells), the “relative fluorescence unit (RFU)” value is listed as 37918.9 ± 10579.6 RFU.
As to `N[C@@H](CC(=O)O)C(=O)O` [L-Asp, L-aspartic acid, reference compound], in the series on COL1A1 promoter (LX-2 cells, 0.5 mM, 24 h), the inhibition at 500 µM was determined as 11.3 ± 0.35%. Also, the “relative fluorescence unit (RFU)” value with COL1A1 promoter (LX-2 cells) stood at 110724.3 ± 444.6 RFU. The “inhibition of inflammatory factors” value in series [5] (LPS 1 μg/mL) was “moderate inhibition”.
As to `CC(C)(C)OC(=O)C[C@H](NC(=O)OCC1c2ccccc2-c2ccccc21)C(=O)NCCO` [Compound 3, Tert-butyl (S)-3-((((9H-fluoren-9-yl)methoxy)carbonyl)amino)-4-((2-hydroxyethyl)amino)-4-oxobutanoate], the melting point lay within 93.2 to 95.6 °C. In series [1] (setting [6]), the CC50 at 24 h was found to be 660 ± 24.6 µM. For the same compound, in the series on LX-2 cells [2], the “SI, selectivity index (CC50/IC50)” value was determined as 2.01. Moreover, in the series with COL1A1 promoter (setting [7]), the IC50 was 327 ± 17.1 µM. Moreover, the inhibition at 500 µM in the series on COL1A1 promoter (LX-2 cells, 0.5 mM, 24 h) is 81.5 ± 5.62%. In addition, the “relative fluorescence unit (RFU)” value in the series with COL1A1 promoter (LX-2 cells) is 23056.9 ± 7017.3 RFU.
